Source: article PMC12169663, “Deciphering the Tumor Uptake of Heterobivalent (SST2/Albumin) [^64Cu]Cu-NODAGA-cLAB-TATEs” (Journal of Medicinal Chemistry, 2025)
Like-named read-outs stand apart in the source and are kept apart here. Values belong to the compound of their own block, whether it stands above or below them.

Experiments:
[1] = biological target: T1, human serum albumin (HSA) (Homo sapiens, UniProt P02768)
Description: (§2) The ultrafiltration assay used to quantify the binding of the ^64Cu-labeled peptides to HSA was performed as previously described for NODAGA-cLAB-TATEs. , Briefly, a constant activity amount of the radioligands (10–15 MBq) were mixed with different HSA concentrations (200 nM–1.4 mM). Aliquots were loaded into the ultrafiltration devices (4104 centrifugal filter units by Millipore; 30 000 Da nominal molecular weight limit, methylcellulose micropartition membranes) and centrifuged. After centrifugation, aliquots from the top and bottom fractions were measured in a γ-counter (PerkinElmer, Wizard^2 2480 automatic gamma counter). The retained fraction was calculated as a quotient of these measurements. The dissociation constant, K d, was calculated using the Morrison equation.

in vivo = details: female, NMRI-nu/nu (Rj:NMRI-Foxn1nu/nu), mouse, iv, total radioactivity
Description: (§3) The biodistribution of [ ^ 64 Cu]­Cu-NODAGA-cLAB­(5/6)-TATE, [ ^ 64 Cu]­Cu-NODAGA-cLAB4- scr TATE, and [ ^ 64 Cu]­Cu-DOTA-EB-TATE was assessed in a subcutaneous MPC tumor allograft model via small-animal PET imaging (Figure A–D). The time-activity curves (TACs) for tumor, kidneys, and heart are shown in Figure A–D (for TACs of muscle and liver, see Figure S6) and the calculated areas under curves (AUC0–48h) and tumor-to-tissue ratios are graphically summarized in Figure E,F, respectively.
(§4) (A–D) Time-activity curves (SUV, decay-corrected, as a function of time up to 48 h) obtained by PET acquisition are depicted (0–2 h in dynamic mode and time points 5, 24, and 48 h p.i.; the x-axes are segmented accordingly). Data shown are mean values (±SD) of a group of MPC tumor-bearing NMRI-nu/nu mice (n = 2, but for cLAB6-TATE n = 4). […] (E) Calculated AUC0–48h values. Data shown are mean values (±SD). (F) Tumor/organ ratios based in the AUC0–48h values.
(§5) A number of 4 × 10^6 MPC cells were resuspended in 40 μL of Dulbecco’s phosphate-buffered saline and injected subcutaneously into the shoulder of 7–10-week-old female nude mice (Rj:NMRI-Foxn1^nu/nu, Janvier Laboratories, Le Genest-Saint-Isle, France). General anesthesia was induced and maintained with inhalation of 10% (v/v) desflurane in 30% oxygen/air (v/v). Tumor growth was monitored using caliper measurements. Animals were sacrificed using CO2 inhalation and cervical dislocation. When diameters of MPC tumors reached 8 ± 3 mm (volumes of 65–282 mm^3), small-animal positron emission tomography (PET) was performed using the nanoScan PET/CT (Mediso Medical Imaging Systems, Budapest, Hungary) and Si78 PET/CT (BRUKER, Billerica, MA) instruments. Scanners were cross-calibrated using a syringe source containing 10 MBq of [^64Cu]­CuCl2 diluted in 2 mL of 0.01 M HCl. Each mouse (n = 2) received between 7 and 10 MBq of the respective radioligand (A m = 40 GBq/μmoL) delivered in 0.154 M NaCl via intravenous injection through a tail vein catheter within the initial 30 s after scan start. […] Standardized uptake values (SUV = [MBq detected activity/mL tissue]/[MBq injected activity/g body weight]) were determined in defined volumes of interest (VOIs) and reported as VOI-averaged SUVmean ± range [min–max]. Assuming a density of 1 g/mL for body tissues, the SUVs become dimensionless.

HSA = HSA (Homo sapiens, UniProt P02768); assay: Kd[HSA] from SST2 saturation binding in presence of HSA, nonlinear regression with model of Blakeley et al.
Sequence of HSA (P02768 25-609): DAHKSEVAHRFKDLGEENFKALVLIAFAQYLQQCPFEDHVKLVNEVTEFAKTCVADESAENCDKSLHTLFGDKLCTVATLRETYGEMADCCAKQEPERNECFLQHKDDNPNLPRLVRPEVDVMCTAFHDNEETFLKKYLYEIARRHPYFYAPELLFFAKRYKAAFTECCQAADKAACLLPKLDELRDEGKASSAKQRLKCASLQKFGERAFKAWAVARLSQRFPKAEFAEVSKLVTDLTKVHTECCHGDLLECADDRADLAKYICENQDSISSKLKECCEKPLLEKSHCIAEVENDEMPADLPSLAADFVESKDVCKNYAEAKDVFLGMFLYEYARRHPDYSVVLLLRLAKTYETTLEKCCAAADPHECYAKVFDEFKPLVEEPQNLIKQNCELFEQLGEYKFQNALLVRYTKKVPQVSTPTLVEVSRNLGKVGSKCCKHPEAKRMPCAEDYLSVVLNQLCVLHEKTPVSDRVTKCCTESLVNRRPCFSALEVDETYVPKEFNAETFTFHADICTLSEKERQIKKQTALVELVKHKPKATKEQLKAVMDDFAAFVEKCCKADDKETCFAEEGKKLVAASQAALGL
Description: Blakeley et al. developed a mathematical model that includes radioligand, protein (herein HSA), and target receptor (herein SST2) to derive the K d[HSA] value of the radioligand from saturation binding experiments to the target receptor in the presence of HSA. The authors specified an explicit mathematical solution for their proposed cubic equation and provided this solution also in a practical format for GraphPad Prism, which allows the analysis of experimental data but also simulations.

[2] = parameters: method as in not given; details: previously characterized; ref not given; cited from earlier work
[3] = Plasma stability assay, mouse plasma; assay type: in vitro ADME
Description: Previously, we discovered that the ^64Cu-labeled NODAGA-cLAB-TATEs with a primary amide functionality within the albumin-binding moiety are subject to a metabolic transformation in mouse plasma. In fact, the primary amide is slowly hydrolyzed to the carboxylic acid, which turned out to be catalyzed by plasma carboxylesterases as proven by blocking this transformation in the presence of bis-para-nitrophenylphosphate. […] As this transformation entails also an increase in the binding affinity to albumin, there might be effects on the biodistribution in mice, in particular the blood circulation time. To investigate this, NODAGA-cLAB6-TATE was designed, with cLAB6 (N3Bz-D-Lys(MPB)-NH2) representing the D-configured pendant of cLAB4 (N3Bz-L-Lys(MPB)-NH2). […] However, the apparent half-lives for both compounds (≈13 and >24 h) are longer compared to the half-lives previously determined for [ ^ 64 Cu]-Cu-NODAGA-cLAB3-TATE and [ ^ 64 Cu]-Cu-NODAGA-cLAB4-TATE (≈6 and ≈3 h, respectively). For better comparability, the stability of [ ^ 64 Cu]-Cu-NODAGA-cLAB4-TATE was again examined with the same mouse plasma batch used for [ ^ 64 Cu]-Cu-NODAGA-cLAB5-TATE and [ ^ 64 Cu]-Cu-NODAGA-cLAB4- scr TATE. […] Therefore, the discrepancy with our previously reported stability data in mouse plasma might result from differences in the activity of plasma carboxylesterases in the obtained mouse plasma. However, the rate of amide hydrolysis is indeed lower for [ ^ 64 Cu]-Cu-NODAGA-cLAB4- scr TATE, independent of the mouse plasma batch, which might indicate that the actual amino acid sequence in these peptides affects the recognition by the plasma carboxylesterases.
2 Stability of the ^64Cu-labeled TATE derivatives in mouse plasma. (A) Radio-HPLC chromatograms of [^64Cu]-Cu-NODAGA-cLAB5-TATE (red), [^64Cu]-Cu-NODAGA-cLAB6-TATE (green), and [^64Cu]-Cu-NODAGA-cLAB- scr TATE (blue) after ^64Cu-labeling and incubation in mouse plasma for 24 h show the transformation of [^64Cu]-Cu-NODAGA-cLAB5-TATE and [^64Cu]-Cu-NODAGA-cLAB4- scr TATE into a metabolite of higher retention time (see the Discussion for explanation). (B) Plot of residual intact radioligands upon incubation with mouse plasma including nonlinear regression (black line) according to one-phase decay for [^64Cu]-Cu-NODAGA-cLAB5-TATE (red circles). The dotted lines represent fractions of 0.5 and 0.9. Data shown are mean values (±SD) from 1 to 3 experiments (each experiment was performed in single execution). […]
(§1) Plasma stability of the radioligands was done as previously described for NODAGA-cLAB-TATE and NODAGA-NES-TATEs. , Briefly, an aliquot of the radioligand was added to plasma and stability was assessed at different time points by withdrawing an aliquot, followed by protein precipitation and analysis by radio-HPLC.

[4] = Plasma stability assay, human plasma; assay type: in vitro ADME; details: 37 °C, up to 24 h, single experiment, read-out: t1/2 (plasma), human
Description: Previously, we discovered that the ^64Cu-labeled NODAGA-cLAB-TATEs with a primary amide functionality within the albumin-binding moiety are subject to a metabolic transformation in mouse plasma. In fact, the primary amide is slowly hydrolyzed to the carboxylic acid, which turned out to be catalyzed by plasma carboxylesterases as proven by blocking this transformation in the presence of bis-para-nitrophenylphosphate. […] As this transformation entails also an increase in the binding affinity to albumin, there might be effects on the biodistribution in mice, in particular the blood circulation time. To investigate this, NODAGA-cLAB6-TATE was designed, with cLAB6 (N3Bz-D-Lys(MPB)-NH2) representing the D-configured pendant of cLAB4 (N3Bz-L-Lys(MPB)-NH2). […] However, the apparent half-lives for both compounds (≈13 and >24 h) are longer compared to the half-lives previously determined for [ ^ 64 Cu]-Cu-NODAGA-cLAB3-TATE and [ ^ 64 Cu]-Cu-NODAGA-cLAB4-TATE (≈6 and ≈3 h, respectively). […]
as §1

MPC cells = assay: Cell binding and uptake (internalization) in MPC cells; assay type: cell-based, mouse
Description: Furthermore, the receptor-mediated endocytosis (referred to as internalization) of the novel compounds was assessed. The values for the internalized fraction (or “acid wash” resistant fraction) were >50% (Figure S5), which might indicate a similar pharmacological behavior of these ligands upon binding to SST2 as the parent ligand TATE.
Cell binding and uptake were measured as previously described. , MPC cells were seeded into collagen-coated 24-well microplates and cultivated for 4 days. All washing steps were performed using PBS containing 0.9 mM CaCl2 and 0.5 mM MgCl2. Total radioligand uptake was measured after incubation with the radioligand (A m = 30 GBq/μmol) at a final concentration of 20 nM in RPMI 1640 medium with GlutaMAX supplement (Thermo Fisher Scientific) for 1 h at 37 and 4 °C. Nonspecific binding was determined in the presence of 20 μM Acetyl-TATE. The uptake fraction was measured after acid wash of cell surface-bound radioligand with wash buffer containing 0.05 M glycine, pH 2.8, for 5 min. The activity of cell homogenates was measured using the γ counter Wizard (PerkinElmer). The protein content of cell homogenates was measured as described above.
Figure S5: Cell binding data
Data shown in A and B are mean values (±SD) of one experiment (NODAGA-cLAB(5/6)- TATE and NODAGA-cLAB4-scrTATE) or 3 experiments (±SEM, DOTA-EB-TATE), which were performed in sextuplicate. In C, the amount of specific “internalized” (acid resistant) radioligand (red bars in A, mean values) is expressed as percentage of specific total -bound radioligand (blue bars in A, mean values). The difference to 100% was assigned to “surface - bound” radioligand. For a better overview, the compound names were abbreviated. […]
specific binding of radioligand
Incubation at 37°C for 1 h
(% dose/mg of protein) Washing with
Incubation at 4°C for 1 h […]
(1 picture or pasted object on this page, not shown here)

[5] = n-Octanol/PBS distribution coefficient (log D7.4)
Description: The log D7.4 values of the ^64Cu-labeled peptides were determined with the octanol partitioning method.
The determination of the log D7.4 value was done in triplicate as previously described. , Briefly, a sample of the radioligand was added to the 1:1 mixture of PBS/n-octanol. The radioactivity in a defined volume of each layer was measured (ISOMED 2100). The distribution coefficient was expressed as the logarithm of the ratio of counts per minute (cpm) measured in the n-octanol phase to the cpm measured in the PBS phase.

[6] = biological target: T1, human serum albumin (HSA); assay: Radiometric ultrafiltration assay for binding to HSA
Description: as §2

[7] = Small-animal PET imaging in subcutaneous MPC tumor allograft model; details: female, NMRI-nu/nu (Rj:NMRI-Foxn1nu/nu), mouse, tumor, iv, total radioactivity
Description: as §3, §4, §5

[8] = system: MPC tumor-bearing NMRI-nu/nu mice; assay: as above; details: PET, i.v., 7–10 MBq/animal
Description: as §3, §4, §5

intact AR42J cells = system: intact AR42J cells; parameters: method as in not given; details: nonlabeled ligands, ref not given; cited from earlier work
[9] = system: SST2-transfected HTC116 cells; parameters: method as in not given; details: nonlabeled ligands, ref not given; cited from earlier work

T1 sequence (P02768 25-609): as above

Kd [1]: 1.2 µM
logD: -2.26
SUV at 24 h (in vivo): 6 SUV
SUV at 48 h (in vivo): 5.6 SUV
SUV at 72 h (in vivo): 5.6 SUV
Compound: Cc1cc(-c2ccc(NC(=O)[C@H](CCCCNC(=O)CCN3C(=O)CC(SCCC(=O)N[C@H](Cc4ccccc4)C(=O)N[C@H]4CSSC[C@@H](C(=O)N[C@H](C(=O)O)[C@@H](C)O)NC(=O)[C@H]([C@@H](C)O)NC(=O)[C@H](CCCCN)NC(=O)[C@@H](Cc5c[nH]c6ccccc56)NC(=O)[C@H](Cc5ccc(O)cc5)NC4=O)C3=O)NC(=O)CN3CCN(CC(=O)O)CCN(CC(=O)O)CCN(CC(=O)O)CC3)c(C)c2)ccc1/N=N/c1ccc2c(S(=O)(=O)O)cc(S(=O)(=O)O)c(N)c2c1O (some centres unmarked) [[64Cu]Cu-DOTA-EB-TATE, metal not drawn]

Kd (HSA; 1–100 μM HSA, read-out: Kd[HSA] derived from saturation binding, range over the HSA concentrations): 3.9 to 108 µM
Kd (HSA; [HSA] 1 μM, read-out: Kd[HSA] derived from saturation binding): 5.63 µM
Kd (HSA; [HSA] 5 μM, read-out: Kd[HSA] derived from saturation binding): 4.02 µM
Kd (HSA; [HSA] 20 μM, read-out: Kd[HSA] derived from saturation binding): 3.89 µM
Kd (HSA; [HSA] 40 μM, read-out: Kd[HSA] derived from saturation binding): 16.7 µM
Kd (HSA; [HSA] 100 μM, read-out: Kd[HSA] derived from saturation binding): 108 µM
Compound: C[C@@H](O)[C@H](NC(=O)[C@@H]1CSSC[C@H](NC(=O)[C@@H](Cc2ccccc2)NC(=O)CC[C@H](C(=O)O)N2CCN(CC(=O)O)CCN(CC(=O)O)CC2)C(=O)N[C@@H](Cc2ccc(O)cc2)C(=O)N[C@H](Cc2c[nH]c3ccccc23)C(=O)N[C@@H](CCCCN)C(=O)N[C@@H]([C@@H](C)O)C(=O)N1)C(=O)O [[64Cu]Cu-NODAGA-TATE, metal not drawn]
log D7.4 [2]: −3.43

half-life ([3]; 37 °C, up to 24 h, single experiment, read-out: t1/2 (plasma), mouse): ~13 h
hydrolysis of the primary amide in mouse plasma ([3]; 24 h, radio-HPLC): hydrolyzed
half-life [4]: > 24 h
logD [5]: -2.27
Kd [6]: 440 µM
SUV [7]: 8.9 SUV
SUV at 2 h [7]: 7.9 SUV
SUV at 4 h [7]: 4.9 SUV
SUV at 24 h [7]: 2.3 SUV
AUC0-48h heart [8]: 5.98 SUVmean*h
AUC0-48h kidney [8]: 32.36 SUVmean*h
AUC0-48h liver [8]: 22.25 SUVmean*h
AUC0-48h tumor [8]: 148 SUVmean*h
AUC0-48h tumor ([8]; listed as cLAB5): 148.10 SUVmean*h
Compound: C[C@@H](O)[C@H](NC(=O)[C@@H]1CSSC[C@H](NC(=O)[C@@H](Cc2ccccc2)NC(=O)COCCOCCNC(=O)[C@H](Cc2cn(-c3ccc(C(=O)N[C@@H](CCCCNC(=O)CCCc4ccc(F)cc4)C(N)=O)cc3)nn2)NC(=O)CC[C@H](C(=O)O)N2CCN(CC(=O)O)CCN(CC(=O)O)CC2)C(=O)N[C@@H](Cc2ccc(O)cc2)C(=O)N[C@H](Cc2c[nH]c3ccccc23)C(=O)N[C@@H](CCCCN)C(=O)N[C@@H]([C@@H](C)O)C(=O)N1)C(=O)O [[64Cu]Cu-NODAGA-cLAB5-TATE, metal not drawn]
specific binding of radioligand (MPC cells; incubation at 4 °C for 1 h, washing with PBS pH 7.4, 20 nM): 0.94 % dose/mg of protein
specific binding of radioligand (MPC cells; incubation at 4 °C for 1 h, washing with glycine buffer pH 2.8, 20 nM): 0.30 % dose/mg of protein
specific binding of radioligand (MPC cells; incubation at 37 °C for 1 h, washing with PBS pH 7.4 (total bound), 20 nM): 5.74 %dose/mg of protein
specific binding of radioligand (MPC cells; incubation at 37 °C for 1 h, washing with glycine buffer pH 2.8 (acid resistant), 20 nM): 3.34 %dose/mg of protein

Compound: DOTA-TATE
IC50 (intact AR42J cells): 0.00346 µM
IC50 [9]: 0.0102 µM
